Data on three compounds can be found in patent publication US8597693B2, “Pharmaceutical composition with immunomodulating function” (Industrial Technology Research Institute, priority 2010, dated 2013).

The test system of assay [1] is TNF-α. The experiment in a line: TNBS enteritis mouse model, TNF-α in colon infusion. The following applies: 0.6 mg/kg fed + 1.75 mg of TNBS; colon infusion after 48 hours; negative value = enhanced excretion. The assay is classed as in vivo, BABL/c mice. From the text: (§1) The BABL/c mice were categorized into 4 groups. Each group had 6 […].
For assay [2], the system named is IL-6. The experiment in a line: TNBS enteritis mouse model, IL-6 in colon infusion. The following applies: 0.6 mg/kg fed + 1.75 mg of TNBS; colon infusion after 48 hours; negative value = enhanced excretion. The assay is classed as in vivo, BABL/c mice.
Source text: as §1

Assay [3] has as its system carrageenan induced hindpaw edema. The experiment in a line: Carrageenan induced hindpaw edema in a rat model. The assay is classed as in vivo, Long-Evan rats. The following applies: 3 mg/kg fed 1 hour before carrageenan (positive control), left hindpaw volume. On the procedure: Long-Evan rats were fed with the extract (a) in Example 5 (i) in an amount of 250 mg/kg, 500 mg/kg, 1000 mg/kg, respectively. The positive control was fed with 3 mg/kg of indomethacin (NSAID). The negative control was fed with 10 ml/kg of 2% Tween 80 as a carrier. After 1 hour, the rats were injected 0.1 ml of 1% carrageenan on the left hindpaw. The volume of the rat's left hindpaw was measured by plethysmometer (Stoelting) at the 0, 1.5th, and 3rd hour after injection. The inhibition was calculated by the formula: Inhibition(%)=(Nt−Nv)/Nv×100
In the formula, Nt represents the left hindpaw volume of the rat fed with the ethanol extract; Nv represents the left hindpaw of the rat fed with the carrier.
On the technique in general: In the carrageenan paw model, swelling and tenderness develop within hours.

In assay [4] the test system is TNF-α. As to the kind of experiment: Inhibition of TNF-α excretion in LPS-stimulated U937 cells. The assay is classed as cell-based. The following applies: Homo sapiens, U-937; PMA-activated U937, 30 minutes preincubation, LPS 4 hours, ELISA of supernatant. On the procedure: The cell line, U937 (human monocyte cell line), was incubated in RPMI medium containing 50 ng/ml PMA (phorbol 12-myristate 13-acetate) (Sigma) and 10% fetal bovine serum (Moor et. al., Roswell Park Memorial Institute) for 24 hours. The cell line was then moved to the RPMI medium without PMA for further 48 hours. The activated U937 was seeded into a 96-well plate in a concentration of 1.6×10^5 cell/well. The wells were added 12.5 μg/ml, 25 μg/ml, 50 μg/ml and 100 μg/ml of kaerophyllin and 1 μg/ml, 3 μg/ml, 10 μg/ml and 30 μg/ml of isokaerphyllin and 10 μl of buffer, respectively. Each well was adjusted to a final volume of 190 μl. The plate was reacted under 37° C. for 30 minutes. Each well was added 10 μl of 20 μg/ml LPS to stimulate cells. After 4 hours under 37° C., the plate was centrifuged to collect the supernatants.
The amount of TNF-α in the supernatant was measured by ELISA (R&D System®) based on the control (DMSO). Meanwhile, the cell viability was measured by MTT assay (Sigma).
For orientation: In an ELISA, binding on a coated surface is turned into a signal by an enzyme label.

Assay [5] has as its system IL-6. As to the kind of experiment: Inhibition of IL-6 excretion in LPS-stimulated U937 cells. The assay is classed as cell-based. The note with it: Homo sapiens, U-937; PMA-activated U937, 30 minutes preincubation, LPS 16-18 hours, ELISA of supernatant. The protocol: The cell line, U937, was cultured like Example 13. The activated U937 was then seeded in a 96-well plate in a concentration of 1.6×10^5 cell/well. The wells were added 6.3 μg/ml, 12.5 μg/ml, 25 μg/ml and 50 μg/ml of kaerophyllin and 3.8 μg/ml, 7.5 μg/ml, 15 μg/ml and 30 μg/ml of isokaerphyllin and 10 μl of buffer, respectively. Each well was adjusted to a final volume of 190 μl. The plate was put under 37° C. for 30 minutes. Each well was added 10 μl of 20 μg/ml LPS to stimulate cells. After 16-18 hours under 37° C., the plate was centrifuged to collect the supernatants.
The amount of IL-6 in the supernatant was measured by ELISA (R&D System®) based on the control (DMSO). Meanwhile, the cell viability was measured by MTT assay (Sigma).

In brackets after ≈: the same amount, converted by molar mass.

Turning to `C[C@@H]1C[C@H]2[C@@H]3CCC4=CC(=O)C=C[C@]4(C)[C@@]3(F)[C@@H](O)C[C@]2(C)[C@@]1(O)C(=O)CO` [DEX, dexamethasone], the “Inhibition of TNF-α (%)” value in assay [1] amounted to 9%. For the same compound, the “Inhibition of IL-6 (%)” value in assay [2] is listed as −55%.
As a reminder, the Inhibition is the change of the read-out against control, counted positive when it falls. Consider `COc1ccc2c(c1)c(CC(=O)O)c(C)n2C(=O)c1ccc(Cl)cc1` [indomethacin], for which the “Inhibition at 0 hour (%)” value in assay [3] (0 hour) is given as 0%. Besides, in assay [3] (1.5th hour), the “Inhibition at the 1.5th hour (%)” value stood at 21%. In addition, in assay [3] (3rd hour), the “Inhibition at the 3rd hour (%)” value is reported as 52%.
One may read the IC50 as the concentration that gives 50% inhibition. As to `COc1ccc(/C=C2\C(=O)OC[C@@H]2Cc2ccc3c(c2)OCO3)cc1OC` [isokaerophyllin, cis-(3,4-dimethoxybenzylidene)-β-(3,4-methylenedioxylbenzyl)-γ-butyrolactone], the concentration for half-maximal inhibition (IC50) in assay [4] is 18 ± 4 µg/mL (≈ 48.9 µM); in assay [5], 24 ± 6 µg/mL (≈ 65.1 µM).
